Data on 20 molecules can be found in ChEMBL document CHEMBL1128046, “Inhibitors of acyl-coa:cholesterol acyltransferase (ACAT). 15. sulfonylurea inhibitors with excellent hypocholesterolemic activity in vivo” (Bioorg Med Chem Lett, 1995).

The target of experiment [1] is T1, Sterol O-acyltransferase 1 (Rattus norvegicus, UniProt O70536).
T1 sequence (O70536 whole entry): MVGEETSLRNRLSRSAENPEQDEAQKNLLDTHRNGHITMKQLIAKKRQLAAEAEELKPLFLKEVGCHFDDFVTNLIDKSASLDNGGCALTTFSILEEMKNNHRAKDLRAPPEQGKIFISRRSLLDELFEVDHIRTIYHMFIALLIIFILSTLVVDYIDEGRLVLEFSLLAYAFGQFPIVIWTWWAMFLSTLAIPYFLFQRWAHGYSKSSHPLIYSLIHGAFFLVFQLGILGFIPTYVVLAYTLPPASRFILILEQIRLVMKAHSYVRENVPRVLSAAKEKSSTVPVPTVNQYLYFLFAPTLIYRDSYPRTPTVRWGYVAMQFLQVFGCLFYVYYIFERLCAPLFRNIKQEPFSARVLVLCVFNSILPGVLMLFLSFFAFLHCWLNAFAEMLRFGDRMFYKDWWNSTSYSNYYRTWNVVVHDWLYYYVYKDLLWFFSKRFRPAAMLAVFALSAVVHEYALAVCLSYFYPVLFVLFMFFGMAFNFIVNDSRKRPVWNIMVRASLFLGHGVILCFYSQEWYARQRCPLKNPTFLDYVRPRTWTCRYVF
Kind of experiment: Inhibition of Acyl-CoA: Cholesterol Acyltransferase (ACAT) in liver microsomes of cholesterol fed rats. Also noted: species or system Microsome. For orientation: Liver microsomes are a subcellular fraction often used to study metabolism.

For experiment [2], the system named is Rattus norvegicus. As to the kind of experiment: Hypocholesterolemic activity expressed as percent change in total cholesterol in acute cholesterol fed rats (APCC) at dose 3 mg/kg. Format: functional.
Experiment [3] deals with Rattus norvegicus. Kind of experiment: Hypocholesterolemic activity expressed as percent change in total cholesterol in acute cholesterol fed rats (APCC) at dose 30 mg/kg. The experiment is classed as functional.
In experiment [4] the test system is Rattus norvegicus. As to the kind of experiment: Hypocholesterolemic activity expressed as percent change in total cholesterol in chronic cholesterol fed rats (CPCC) at dose 30 mg/kg. The experiment is classed as functional.
The subject of experiment [5] is Rattus norvegicus. Kind of experiment: Hypocholesterolemic activity expressed as percent change in total cholesterol in chronic cholesterol fed rats (CPCC) at dose 3 mg/kg. The experiment is classed as functional.
The subject of experiment [6] is Rattus norvegicus. As to the kind of experiment: Hypocholesterolemic activity expressed as percent change in total cholesterol in chronic cholesterol fed rats (CPCC) at dose 3 mg/kg; NC means no change. Format: functional, organism-based. Also noted: dose 3 mg/kg.
Experiment [7] concerns the target T2, O-acyltransferase (Oryctolagus cuniculus, UniProt G1SFD9). As to the kind of experiment: Inhibition of Acyl-CoA: Cholesterol Acyltransferase (ACAT) in intestinal microsomes of cholesterol fed rabbits. Also noted: species or system Intestine.
For experiment [8], the target named is T2, O-acyltransferase. Kind of experiment: (§1) Compound at 5 uM concentration was tested in vitro for inhibition of Acyl-CoA: Cholesterol Acyltransferase (ACAT) in intestinal microsomes of cholesterol fed rabbits. Also noted: species or system Intestine.
Experiment [9] concerns the target T3, Acyl-CoA:cholesterol acyltransferase (Oryctolagus cuniculus) (UniProt Q95214).
T3 sequence (whole entry): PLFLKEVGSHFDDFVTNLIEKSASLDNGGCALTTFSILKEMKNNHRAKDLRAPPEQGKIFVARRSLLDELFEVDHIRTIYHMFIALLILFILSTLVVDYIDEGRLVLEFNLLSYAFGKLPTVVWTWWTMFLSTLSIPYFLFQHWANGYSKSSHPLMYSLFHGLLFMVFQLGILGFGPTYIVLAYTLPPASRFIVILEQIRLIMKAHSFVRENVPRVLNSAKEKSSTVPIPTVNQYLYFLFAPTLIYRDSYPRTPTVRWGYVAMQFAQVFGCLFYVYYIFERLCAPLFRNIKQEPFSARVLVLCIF
Described as §1. To be noted: Intestine.

Experiment [10] concerns the target T1, Sterol O-acyltransferase 1. As to the kind of experiment: (§2) Compound at 5 uM concentration was tested in vitro for inhibition of Acyl-CoA: Cholesterol Acyltransferase (ACAT) in liver microsomes of cholesterol fed rats. Also noted: species or system Microsome.
In experiment [11] the test system is Rattus norvegicus. As to the kind of experiment: Hypocholesterolemic activity expressed as percent change in total cholesterol in acute cholesterol fed rats (APCC) at dose 30 mg/kg; NC means no change. Also noted: dose 30 mg/kg. The experiment is classed as functional, organism-based.
In experiment [12] the target is T4, Sterol O-acyltransferase 1 (Rattus norvegicus) (UniProt O70536).
T4 sequence (whole entry): T1 sequence (O70536 whole entry)
Kind of experiment: Compound at 10 uM concentration was tested in vitro for inhibition of Acyl-CoA: Cholesterol Acyltransferase (ACAT) in liver microsomes of cholesterol fed rats. To be noted: Microsome.

For experiment [13], the target named is T4, Sterol O-acyltransferase 1 (Rattus norvegicus). The experiment is described as §2. To be noted: Microsome.

The source made the active and inactive calls. No cut-off for these calls is given here.

T2 sequence (G1SFD9 1-524): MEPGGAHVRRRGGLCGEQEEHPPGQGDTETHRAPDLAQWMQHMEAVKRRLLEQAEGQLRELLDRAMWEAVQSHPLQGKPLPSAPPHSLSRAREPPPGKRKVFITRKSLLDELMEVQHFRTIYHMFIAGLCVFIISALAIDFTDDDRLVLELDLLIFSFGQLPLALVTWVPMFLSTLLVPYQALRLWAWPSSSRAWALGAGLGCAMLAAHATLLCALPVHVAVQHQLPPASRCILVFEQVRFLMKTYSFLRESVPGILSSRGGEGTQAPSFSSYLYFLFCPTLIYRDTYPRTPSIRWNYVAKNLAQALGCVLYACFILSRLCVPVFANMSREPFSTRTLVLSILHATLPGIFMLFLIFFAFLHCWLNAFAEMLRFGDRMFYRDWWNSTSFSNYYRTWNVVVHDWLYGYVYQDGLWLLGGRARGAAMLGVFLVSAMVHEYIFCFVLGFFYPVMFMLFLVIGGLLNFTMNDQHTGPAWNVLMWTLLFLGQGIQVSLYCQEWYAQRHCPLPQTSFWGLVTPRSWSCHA

For orientation: IC50 means the midpoint of a concentration-inhibition curve. In the case of `CCCCCCCCCCCCCCCCC(C)S(=O)(=O)NC(=O)Nc1c(C(C)C)cccc1C(C)C` (stereo not given), in experiment [1], the midpoint of inhibition, the IC50, lay at 1390 nM. For the same molecule, the Change in [2] is -58%; in [3], -76%; in experiment [4], -36%.
On to `CCCCCCCCCCCCCC(C)(C)S(=O)(=O)NC(=O)Nc1c(OC)cc(OC)cc1OC`, for which the 50% inhibitory concentration (IC50) in experiment [1] is 8100 nM. In addition, the Change in experiment [2] is on record as -18%; in [3], -76%; in experiment [5] it was -13%.
On to `CC(C)c1cccc(C(C)C)c1OC(=O)[N-]S(=O)(=O)Oc1c(C(C)C)cccc1C(C)C.[Na+]`, for which the Change in [2] is on record as -59%; in experiment [3] it was -74%; in [5], -64%; in experiment [4], -64%.
On to `CCCCCCCCCCCCCC(c1ccccc1)S(=O)(=O)NC(=O)Nc1c(C(C)C)cccc1C(C)C` (stereo not given), for which the IC50 in experiment [1] is 2300 nM. In addition, the Change in experiment [2] is reported as -69%; in experiment [3], -72%; in experiment [4], -62%. The Change result in experiment [6] is “inactive”.
Regarding `CCCCCCCCCCCCCS(=O)(=O)NC(=O)Nc1c(C(C)C)cccc1C(C)C`, the IC50 in [7] worked out at 1200 nM; in experiment [1], 2000 nM. Moreover, the Change in experiment [2] is on record as -42%; in [3] it was -62%; in experiment [4] it was -69%.
Consider `CCCCCCCCC(c1ccccc1)S(=O)(=O)NC(=O)Nc1c(C(C)C)cccc1C(C)C` (stereo not given), for which the IC50 in [8] is 1100 nM; in [1] it was 9200 nM. For the same molecule, the Change in experiment [2] is -62%; in experiment [3], -75%; in experiment [5] it was -48%; in [4], -74%.
Turning to `CCCCCCCCCCCCS(=O)(=O)N(C)C(=O)Nc1c(C(C)C)cccc1C(C)C`, the IC50 in experiment [7] is 86 nM; in experiment [1] it was 675 nM. The Change in [2] is listed as -18%; in experiment [3], -49%.
In turn, `CCCCCCCCCCCCCC(C)(C)S(=O)(=O)NC(=O)Nc1c(C(C)C)cccc1C(C)C` showed an IC50 in [1] of 682 nM. In addition, the Change is given as -55% in experiment [2], -52% in [3], -26% in experiment [5] and -59% in experiment [4].
In general, inhibition refers to the drop in the measured response relative to a control, in per cent. Take `CCCCCCCCCCCCCCS(=O)(=O)N(C)C(=O)Nc1c(C(C)C)cccc1C(C)C`: half-maximal inhibition in experiment [1] (IC50) was put at 8830 nM. Also, the inhibition in experiment [9] was determined as 34%. The Change is given as -20% in experiment [2] and -48% in [3].
As to `CCCCCCCCS(=O)(=O)NC(=O)Nc1c(C(C)C)cccc1C(C)C`, in experiment [1], half-maximal inhibition (IC50) was put at 22600 nM. This molecule also showed an inhibition in experiment [9] of 24%. For the same molecule, the Change was -31% in [2], -74% in [3] and -59% in experiment [4].
For the molecule `CCCCCCCCCCCCCCS(=O)(=O)N(Cc1ccccc1)C(=O)Nc1c(C(C)C)cccc1C(C)C`, the IC50 in experiment [7] came to 520 nM; in [10], 38000 nM. The Change entry in [11] is “inactive”.
`CCCCCCCCCCCCCCCCS(=O)(=O)NC(=O)Nc1c(C(C)C)cccc1C(C)C`: the IC50 in experiment [7] worked out at 1350 nM; in experiment [1], 1270 nM. Moreover, the Change in [2] is on record as -58%; in [3], -64%; in experiment [4] it was -10%.
As for `CCCCCCCCCCCCS(=O)(=O)NC(=O)Nc1c(C(C)C)cccc1C(C)C`, the IC50 in experiment [7] is 2330 nM; in [1], 3300 nM. Further, the Change is given as -59% in experiment [2], -63% in experiment [3], -35% in experiment [5] and -53% in experiment [4].
`CCCCCCCCCCCCCCCCC(C)S(=O)(=O)NC(=O)Nc1c(OC)cc(OC)cc1OC` (stereo not given) showed an IC50 in [1] of 85 nM. The Change is -12% in [2], -53% in [3] and -18% in experiment [4].
`CCCCCCCCCCCCCCS(=O)(=O)NC(=O)Nc1c(C(C)C)cccc1C(C)C` yielded an IC50 in experiment [1] of 940 nM. Also, the Change in [2] is -60%; in [3], -56%; in experiment [5] it was -46%; in [4], -58%.
As to `CCCCCCCCCCCCCCS(=O)(=O)NC(=O)Nc1ccc(F)cc1F`, the values for the inhibition in experiment [12] and in experiment [9] were 0% and 49%, respectively. Further, the Change in experiment [2] is listed as -14%.
For the molecule `CCCCCCCCCCS(=O)(=O)NC(=O)Nc1c(C(C)C)cccc1C(C)C`, the IC50 in experiment [7] came to 11100 nM; in [1] it was 13600 nM. Further, the Change in experiment [2] was -40%; in [3], -52%; in experiment [4], -47%.
In turn, `CCCCCCCCC(C)S(=O)(=O)NC(=O)Nc1c(C(C)C)cccc1C(C)C` (stereo not given) displayed an IC50 in experiment [1] of 1300 nM. Moreover, the Change in [2] was -32%; in [3], -69%; in experiment [5], -46%; in experiment [4] it was -58%.
In [1], `CCCCCCCCCCCCCC(C)S(=O)(=O)NC(=O)Nc1c(C(C)C)cccc1C(C)C` (stereo not given) returned an IC50 of 830 nM. The Change in experiment [2] is recorded as -61%; in experiment [3], -76%; in experiment [5], -26%; in [4], -61%.
In turn, `CCCCCCCCCCCCCCS(=O)(=O)NC(=O)Nc1c(OC)cc(OC)cc1OC` had an inhibition in experiment [13] of 40%. In addition, the Change is -31% in experiment [2] and -47% in experiment [3].
